From PMC10895799, “Differential contribution of THIK-1 K^+ channels and P2X7 receptors to ATP-mediated neuroinflammation by human microglia” (Journal of Neuroinflammation, 2024) come the findings set out here.

Each structure is given as a SMILES string. pIC50: −log10 of the molar value.

Holding throughout (format): cell-based
For one test, the target named is T1, THIK-1 (mKCNK13) (Mus musculus, UniProt Q8R1P5).
T1 construct: gene Kcnk13
T1 sequence (Q8R1P5 1-405): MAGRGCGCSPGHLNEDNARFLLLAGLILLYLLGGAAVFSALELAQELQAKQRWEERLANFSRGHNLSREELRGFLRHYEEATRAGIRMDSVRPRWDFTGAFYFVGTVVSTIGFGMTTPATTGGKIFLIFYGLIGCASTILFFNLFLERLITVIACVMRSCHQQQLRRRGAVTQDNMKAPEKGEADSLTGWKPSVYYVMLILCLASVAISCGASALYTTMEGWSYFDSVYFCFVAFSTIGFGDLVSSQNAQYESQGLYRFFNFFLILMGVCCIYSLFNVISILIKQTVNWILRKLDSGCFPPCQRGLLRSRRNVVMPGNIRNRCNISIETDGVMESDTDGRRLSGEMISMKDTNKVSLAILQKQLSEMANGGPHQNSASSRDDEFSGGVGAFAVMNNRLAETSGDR
Put plainly: FLIPR thallium flux in HEK293 cells; patch clamp of WT and THIK-1 KO microglia.

In test [1] the target is T2, THIK-1 (hKCNK13) (Homo sapiens, UniProt Q9HB14).
T2 construct: gene KCNK13
T2 sequence (Q9HB14 1-408): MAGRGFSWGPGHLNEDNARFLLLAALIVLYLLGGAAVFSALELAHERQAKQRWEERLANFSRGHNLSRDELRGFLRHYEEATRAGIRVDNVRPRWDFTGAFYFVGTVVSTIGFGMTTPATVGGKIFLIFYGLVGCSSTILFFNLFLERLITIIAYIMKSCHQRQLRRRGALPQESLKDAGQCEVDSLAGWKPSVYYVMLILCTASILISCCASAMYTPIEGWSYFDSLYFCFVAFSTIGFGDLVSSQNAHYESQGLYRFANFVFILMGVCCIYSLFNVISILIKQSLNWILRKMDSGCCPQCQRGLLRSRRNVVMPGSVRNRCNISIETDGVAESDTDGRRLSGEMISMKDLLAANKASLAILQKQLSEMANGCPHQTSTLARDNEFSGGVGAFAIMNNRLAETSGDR
Put plainly: radioligand displacement on HEK-hKCNK13 membranes; IC50 from FLIPR thallium flux in HEK293; QPatch IC50 […]. For orientation: In a radioligand displacement assay an active substance lowers the binding of a labelled ligand.

Test [2] concerns the target T2, THIK-1 (hKCNK13). As to the kind of experiment: reference blocker in FLIPR thallium flux and QPatch assays of hTHIK-1 HEK cells. Background: The patch-clamp technique gives a direct electrical read-out from membranes.

In general, pIC50 refers to the negative decadic logarithm of the IC50, by convention in mol/L. Low values mean a high IC50, high ones a low IC50. In the case of `COc1ncc(Cl)cc1C(=O)N(C)Cc1cccc(F)c1` [C100814], the pIC50 is 7.21 against THIK-1 (mKCNK13) and 7.15 at THIK-1 (hKCNK13) [1].

For the molecule `CCCCC[N+](CCCCC)(CCCCC)CCCCC` [tetrapentylammonium], the “reference blocker in FLIPR thallium flux and QPatch assays of hTHIK-1 HEK cells” value at THIK-1 (hKCNK13) [2] is listed as “normalised to controls using the nonselective THIK-1 antagonist tetrapentylammonium (TPA)”.
